Patent US20240382465A1, “AROMATIC ACETYLENE DERIVATIVE, AND PREPARATION METHOD THEREFOR AND USE THEREOF” (priority 2021, published 2024)
pIC50: −log10 of the molar value. ≈ marks a conversion by molar mass, not a printed value. Read-outs that look alike come from different tables or passages of the source.

Columns and labels:
[1] = biological target: recombinant Pseudomonas aeruginosa LpxC (Pseudomonas aeruginosa (strain ATCC 15692 / DSM 22644 / CIP 104116 / JCM 14847 / LMG 12228 / 1C / PRS 101 / PAO1), UniProt P47205); assay: Inhibition of LpxC enzymatic activity (fluorescamine assay); format: biochemical
Experimental: The degree of inhibition of the enzymatic activity of recombinant Pseudomonas aeruginosa LpxC by the compounds of the present disclosure under in vitro conditions was determined using the following method.
The experimental procedure is briefly described as follows: The test compound was first dissolved in DMSO to prepare a 10 mM stock solution. The reaction was carried out in a 96-well microplate. First, 20 μL of recombinant Pseudomonas aeruginosa LpxC (purchased from Signalway Antibody, product number AP74647-2) was added to each well, with a final concentration of 5 nM. 5 μL of the compound to be tested was then added, and the compound was diluted 4 times to 8 concentration points with a concentration range of 0.61-10,000 nM. 5 μL of LpxC substrate UDP-3-O—(R-3-hydroxydecanoyl)-GlcNAc (purchased from Biosynth Carbosynth, product number: mu75071) was added, with a final concentration of the substrate of 10 μM. The plate was incubated at 25° C. for 120 minutes. Then 20 μL of 2.0 mg/mL fluorescamine (purchased from sigmaaldrich, product number: F9015, solvent: 1:1 dimethylformamide/acetonitrile) was added to the reaction system, and mixed well for 10 minutes of reaction. Finally, 50 μL of 200 mM sodium phosphate buffer (pH 8.0) was added to terminate the reaction. Reading was carried out using a microplate reader (BMG), and the excitation and emission wavelengths were 390 and 495 nm respectively. By comparing with the fluorescence intensity ratio of the control group ([…]), the percentage inhibition rate of the compound at each concentration was calculated.

[2] = system: K. pneumoniae ATCC13883; assay: Antibacterial activity, MIC by broth microdilution (CLSI); format: cell-based; details: Klebsiella pneumoniae; K. pneumoniae ATCC13883, 35° C., 18 to 24 hours; read-out: MIC(K. Pneumoniae)
Experimental: (§1) The in vitro minimum inhibitory concentration (MIC) was determined in accordance with the CLSI guidelines, and was measured using the broth microdilution method.
(§2) The experimental process is briefly described as follows: The test compound was dissolved in DMSO to prepare a […] stock solution, which was then prepared into 11 twice-diluted 100× high-concentration working solutions (the final concentration of the system was 64 μg/mL-0.06 μg/mL) using DMSO. The strains (K. pneumoniae ATCC13883 and E. coli ATCC 25922) frozen in −80° C. glycerol were inoculated into solid agar medium, placed in an incubator at 35° C. for 18-24 hours of incubation. After the preparation of strains was completed, an appropriate amount of solid plate culture was collected, resuspended in physiological saline, and mixed well. The bacterial suspension was adjusted to a suitable turbidity using a turbidity meter, containing approximately 1×10^8 cfu/mL bacteria. Then the bacterial suspension with the adjusted turbidity was diluted to a bacterial concentration of 5×10^5 cfu/ml using the culture medium for measurement, to complete the preparation of the inoculum solution. 198 μL of the inoculum solution was inoculated into a 96-well plate, and then added with 2 μL of a 100× high-concentration working solution of the compound. Then the 96-well plate was placed at 35° C. for 18 to 24 hours of incubation.

[3] = system: E. coli ATCC 25922; assay: as above; format: cell-based; details: Escherichia coli, ATCC25922; E. coli ATCC 25922, 35° C., 18 to 24 hours; read-out: MIC(E. coli)
Experimental: as §1, §2

[4] = recombinant P. aeruginosa LpxC 5 nM, substrate 10 μM, 25° C., 120 minutes, read-out: IC50

| Compound | pIC50 [1, 4] | MIC [2] [µg/mL] | MIC [3] [µg/mL] | pIC50 [1] |
| --- | --- | --- | --- | --- |
| C[C@H](O)c1nccn1Cc1cc(-c2ccc(C#Cc3ccc(CN4CCOCC4)cc3)cc2)on1 [Example 2, (S)-1-(1-((5-(4-((4-(morpholinomethyl)phenyl)ethynyl)phenyl)isoxazol-3-yl)methyl)-1H-imidazol-2-yl)ethan-1-ol] | 8.51 | 1 (≈ 2.13 µM) | 0.5 (≈ 1.07 µM) | – |
| C[C@H](O)c1nccn1Cc1cc(-c2ccc(C#Cc3ccc(CN4CCOCC4)cc3)cc2)no1 [Example 3, (S)-1-(1-((3-(4-((4-(morpholinomethyl)phenyl)ethynyl)phenyl)isoxazol-5-yl)methyl)-1H-imidazol-2-yl)ethan-1-ol] | 7.60 | 2 (≈ 4.27 µM) | 1 (≈ 2.13 µM) | – |
| C[C@H](O)c1nccn1Cc1cc(-c2ccc(C#Cc3ccc(C(=O)N4CCOCC4)cc3)cc2)on1 [Example 6, (S)-(4-((4-(3-((2-(1-hydroxyethyl)-1H-imidazol-1-yl)methyl)isoxazol-5-yl)phenyl)ethynyl)phenyl)(morpholino)methanone] | 7.89 | 4 (≈ 8.29 µM) | 2 (≈ 4.14 µM) | – |
| C[C@H](O)c1nccn1Cc1cc(-c2ccc(C#Cc3ccccc3)cc2)on1 [Example 7, (S)-1-(1-((5-(4-(phenylethynyl)phenyl)isoxazol-3-yl)methyl)-1H-imidazol-2-yl)ethan-1-ol] | 7.14 | 0.5 (≈ 1.35 µM) | 0.25 (≈ 0.677 µM) | – |
| C[C@H](O)c1nccn1Cc1cc(-c2ccc(C#Cc3cccnc3)cc2)on1 [Example 9, (S)-1-(1-((5-(4-(pyridin-3-ylethynyl)phenyl)isoxazol-3-yl)methyl)-1H-imidazol-2-yl)ethan-1-ol] | 7.57 | 2 (≈ 5.4 µM) | 1 (≈ 2.7 µM) | – |
| C[C@H](O)c1nccn1Cc1cc(-c2ccc(C#Cc3ccncc3)cc2)on1 [Example 10, (S)-1-(1-((5-(4-(pyridin-4-ylethynyl)phenyl)isoxazol-3-yl)methyl)-1H-imidazol-2-yl)ethan-1-ol] | 7.52 | 1 (≈ 2.7 µM) | 0.5 (≈ 1.35 µM) | – |
| C[C@H](O)c1nccn1Cc1cc(-c2ccc(C#Cc3ccc(CN4CCOC(C(=O)O)C4)cc3)cc2)on1 (stereo partly drawn) [Example 47, 4-(4-((4-(3-((2-((S)-1-hydroxyethyl)-1H-imidazol-1-yl)methyl)isoxazol-5-yl)phenyl)ethynyl)benzyl)morpholin-2-carboxylic acid] | – | – | 8 (≈ 15.6 µM) | 7.95 |
| C[C@H](O)c1nccn1Cc1cc(-c2ccc(C#Cc3ccc(C(=O)N4CCC(O)CC4)cc3)cc2)on1 [Example 67, (S)-(4-((4-(3-((2-(1-hydroxy-ethyl)-1H-imidazol-1-yl)methyl)isoxazol-5-yl)phenyl)ethynyl)phenyl)(4-hydroxypiperidin-1-yl)methanone] | 7.98 | – | 2 (≈ 4.03 µM) | – |
| C[C@H](O)c1nccn1Cc1cc(-c2ccc(C#Cc3ccc(C(=O)N4CCC(C(=O)O)CC4)cc3)cc2)on1 [Example 69, (S)-1-(4-((4-(3-((2-(1-hydroxyethyl)-1H-imidazol-1-yl)methyl)isoxazol-5-yl)phenyl)ethynyl)benzoyl)piperidin-4-carboxylic acid] | 7.98 | – | 8 (≈ 15.3 µM) | – |
| CCN(CC)CCNC(=O)c1ccc(C#Cc2ccc(-c3cc(Cn4ccnc4[C@H](C)O)no3)cc2)cc1 [Example 70, (S)-N-(2-(diethylamino)ethyl)-4-((4-(3-((2-(1-hydroxyethyl)-1H-imidazol-1-yl)methyl)isoxazol-5-yl)phenyl)ethynyl) benzamide] | 7.89 | – | 8 (≈ 15.6 µM) | – |
| C[C@H](O)c1nccn1Cc1cc(-c2ccc(C#Cc3ccc(C(=O)NCCN(C)C)cc3)cc2)on1 [Example 71, (S)-N-(2-(dimethylamino)ethyl)-4-((4-(3-((2-(1-hydroxyethyl)-1H-imidazol-1-yl)methyl)isoxazol-5-yl)phenyl)ethynyl) benzamide] | 7.62 | – | 8 (≈ 16.5 µM) | – |
| C[C@H](O)c1nccn1Cc1cc(-c2ccc(C#Cc3ccc(C(=O)NCC(C)(C)O)cc3)cc2)on1 [Example 72, (S)-N-(2-hydroxy-2-methyl-propyl)-4-((4-(3-((2-(1-hydroxyethyl)-1H-imidazol-1-yl)methyl)isoxazol-5-yl)phenyl)ethynyl) benzamide] | 7.58 | – | 8 (≈ 16.5 µM) | – |
| C[C@H](O)c1nccn1Cc1cc(-c2ccc(C#Cc3ccc(C(=O)NCCC(=O)O)cc3)cc2)on1 [Example 73, (S)-3-(4-((4-(3-((2-(1-hydroxyethyl)-1H-imidazol-1-yl)methyl)isoxazol-5-yl)phenyl)ethynyl)benzamido)propanoic acid] | 7.48 | – | 8 (≈ 16.5 µM) | – |
| C[C@H](O)c1nccn1Cc1cc(-c2ccc(C#Cc3ccc(OCC4CCN(C)CC4)cc3)cc2)on1 [Example 76, (S)-1-(1-((5-(4-((4-((1-methylpiperidin-4-yl)methoxy)phenyl)ethynyl)phenyl)isoxazol-3-yl)methyl)-1H-imidazol-2-yl) ethan-1-ol] | 7.89 | – | 8 (≈ 16.1 µM) | – |
| C[C@H](O)c1nccn1Cc1cc(-c2ccc(C#Cc3ccc(CN4CCOC(CC(=O)O)C4)cc3)cc2)on1 (stereo partly drawn) [Example 93, 2-(4-(4-((4-(3-((2-((S)-1-hy-droxyethyl)-1H-imidazol-1-yl)methyl)isoxazol-5-yl)phenyl)ethynyl)benzyl)morpholin-2-yl) acetic acid] | 7.79 | – | 8 (≈ 15.2 µM) | – |
| C[C@H](O)c1nccn1Cc1cc(-c2ccc(C#Cc3ccc(CN4CC(C(=O)O)C4)cc3)cc2)on1 [Example 95, (S)-1-(4-((4-(3-((2-(1-hydroxyethyl)-1H-imidazol-1-yl)methyl)isoxazol-5-yl)phenyl)ethynyl)benzyl)azetidin-3-carboxylic acid] | 7.70 | – | 8 (≈ 16.6 µM) | – |
| C[C@H](O)c1nccn1Cc1cc(-c2ccc(C#Cc3ccc(CN4CCNCC4)cc3)cc2)on1 [Example 96, (S)-1-(1-((5-(4-((4-(piperazin-1-ylmethyl)phenyl)ethynyl)phenyl)isoxazol-3-yl)methyl)-1H-imidazol-2-yl)ethan-1-ol] | 7.80 | – | 4 (≈ 8.55 µM) | – |
| C[C@H](O)c1nccn1Cc1cc(-c2ccc(C#Cc3ccc(CNCC(=O)O)cc3)cc2)on1 [Example 99, (S)-(4-((4-(3-((2-(1-hydroxy-ethyl)-1H-imidazol-1-yl)methyl)isoxazol-5-yl)phenyl)ethynyl)benzyl)glycinate] | – | – | 4 (≈ 8.76 µM) | 7.71 |
| C[C@H](O)c1nccn1Cc1cc(-c2ccc(C#Cc3cccc(C(=O)O)c3)cc2)on1 [Example 107, (S)-3-((4-(3-((2-(1-hydroxy-ethyl)-1H-imidazol-1-yl)methyl)isoxazol-5-yl)phenyl)ethynyl) benzoic acid] | 7.79 | – | 8 (≈ 19.4 µM) | – |
| C[C@H](O)c1nccn1Cc1cc(-c2ccc(C#Cc3cccc(CCC(=O)O)c3)cc2)on1 [Example 109, (S)-3-(3-((4-(3-((2-(1-hydroxyethyl)-1H-imidazol-1-yl)methyl)isoxazol-5-yl)phenyl)ethynyl)phenyl)propanoic acid] | 7.63 | – | 4 (≈ 9.06 µM) | – |
| C[C@H](O)c1nccn1Cc1cc(-c2ccc(C#Cc3cccc(OCC(=O)O)c3)cc2)on1 [Example 110, (S)-2-(3-((4-(3-((2-(1-hydroxyethyl)-1H-imidazol-1-yl)methyl)isoxazol-5-yl)phenyl)ethynyl)phenoxy)acetic acid] | 7.95 | – | 8 (≈ 18 µM) | – |
